Data set [1] deals with T1, RNase A (Bos taurus, UniProt P61823).
T1 construct: purchased
T1 sequence (P61823 27-150): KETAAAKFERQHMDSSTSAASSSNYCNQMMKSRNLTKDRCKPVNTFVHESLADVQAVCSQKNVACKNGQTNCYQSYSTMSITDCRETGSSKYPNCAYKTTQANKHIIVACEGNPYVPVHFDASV
Nature of the data set: Comparative agarose gel-based assay of RNA degradation by RNase A. It is filed as biochemical, Bovine. To be noted: inhibitor 0.5 mM, RNase A 1 µM, RNA 10 mg/mL. The procedure:
Qualitative indication of RNase A inhibition by the synthetic inhibitors was obtained from a comparative agarose gel-based assay by monitoring the degradation of RNA by RNase A (Figure 2 and Figure 3). The most intense band observed in lane I in each gel is due to the presence of only RNA. […] These experimental observations reaffirmed our assumption that increasing the acidity of the molecules leads to an increase in the inhibitory property of the inhibitor.
Inhibition of RNase A was assayed qualitatively by the degradation of RNA in an agarose gel. In this method, 20 μL of RNase A (1 μM) was mixed with 20 μL (0.5 mM) of compounds U-ol-ol (5), C-ol-ol (16), U-acid (3), C-acid (14), U-ol-acid (8), C-ol-acid (18), U-di-acid (10), and C-di-acid (21) separately to a final volume of 50 μL and the resulting solutions incubated for 3 h. Twenty-microliter aliquots of the incubated mixtures were then mixed with 20 μL of RNA solution (10.0 mg/mL RNA, freshly dissolved in RNase free water) and incubated for another 30 min. Then 10 μL of sample buffer (containing 10% glycerol and 0.025% bromophenol blue) were added to this mixture and 15 μL from each solution were extracted and loaded onto a 1.1% agarose gel. The gel was run using a 0.04-M Tris-Acetic acid-EDTA (TAE) buffer (pH 8.0). The residual RNA was visualized by ethidium bromide staining under UV light.

The target of data set [2] is T1, RNase A. In words: Inhibition kinetics with RNase A (UV, 2',3'-cCMP substrate, Lineweaver–Burk plot). It is filed as biochemical, Bovine. The following applies: 0.1-M Mes-NaOH buffer pH 6.0, 0.1 M NaCl, substrate 2',3'-cCMP; mean ± SD; read-out: Inhibition constant Ki. The procedure: In order to determine the type of inhibition and the inhibition constant (Ki) values, kinetic experiments were performed with compounds U-ol-acid (8), U-di-acid (10), C-ol-acid (18), and C-di-acid (21). The competitive nature of inhibition in all the cases was apparent from the nature of the Lineweaver–Burk plots obtained from the kinetic experiments (Figure 4 and Figure S1 (SI)).
A quantitative account of RNase A inhibition by the individual inhibitors was obtained by a UV spectroscopic method described by Anderson and co-workers. The assay was performed in a 0.1-M Mes-NaOH buffer, pH 6.0 containing 0.1 M NaCl using 2',3'-cCMP as the substrate. The inhibition constants were calculated from initial velocity data using a Lineweaver–Burk plot. The slopes from the Lineweaver–Burk double reciprocal plot were plotted against the corresponding inhibitor concentrations to get inhibition constants (Ki).

Data set [3] deals with T1, RNase A. In words: Circular dichroism of RNase A secondary structure with inhibitor. The arrangement: species or system Bovine. To be noted: RNase A 30 µM mixed with inhibitor 30 µM, 3 h; native RNase A 22.7%. The procedure: Inhibitors of RNase A are known to perturb the secondary structure of the enzyme upon binding. […] Therefore, the probable changes in the secondary structure of the enzyme by the inhibitors were monitored by observing the CD spectra of RNase A in the absence or presence of compounds U-di-acid (10) and C-di-acid (21) (Figure 5).
Circular Dichroism (CD) was performed in order to monitor the changes in the secondary structure of the enzyme as a result of interaction with the inhibitors. In this method, 200 µL of RNase A (30 µM) were mixed separately with 200 µL of U-di-acid (10) (30 µM) and C-di-acid (21) (30 µM) and incubated for 3 h. From the resulting solutions, an aliquot of 300 µL was used for CD measurements, taking a 1 mm path length quartz cell. The spectra were recorded in the range of 190–240 nm with a scan rate of 50 nm/min. Three scans were accumulated for each spectrum. The secondary structure was determined using an online server, DICHROWEB [46].
(Circular dichroism is the unequal absorption of left and right circularly polarised light.)

Compound `Nc1ccn(CC(=O)NCC(=O)O)c(=O)n1` [C-acid (14), [2-(4-Amino-2-oxo-2H-pyrimidin-1-yl)acetylamino] acetic acid] gave a melting point of over 200 °C.

Turning to `Nc1ccn(CC(=O)N(CC(=O)O)CC(=O)O)c(=O)n1` [C-di-acid (21), {[2-(4-Amino-2-oxo-2H-pyrimidin-1-yl)-acetyl]carboxymethylamino}acetic acid], the melting point was in the range of 190 to 193 °C. Moreover, the “RNase A inhibition, relative band intensities in agarose gel” value at RNase A [1] is listed as “relatively more potent inhibitors”. At RNase A [2], the inhibition constant Ki was 235 ± 9 µM. Further, the “α-helix content of RNase A upon binding” value on RNase A [3] was determined as 29.2%.

Take `Nc1ccn(CC(=O)N(CCO)CC(=O)O)c(=O)n1` [C-ol-acid (18), [[2-(4-Amino-2-oxo-2H-pyrimidin-1-yl)acetyl]-(2-hydroxyethyl)amino] acetic acid]: the “RNase A inhibition, relative band intensities in agarose gel” value at RNase A [1] is given as “relatively more potent inhibitors”. Besides, the Ki at RNase A [2] came to 356 ± 7 µM.

Turning to `O=C(O)CN(CC(=O)O)C(=O)Cn1ccc(=O)[nH]c1=O` [U-di-acid (10), {Carboxymethyl-[2-(2,4-dioxo-3,4-dihydro-2H-pyrimidin-1-yl)acetyl]amino}acetic acid], the melting point fell in the range of 118 to 120 °C. In addition, the “RNase A inhibition, relative band intensities in agarose gel” value on RNase A [1] is given as “relatively more potent inhibitors”. Moreover, the Ki on RNase A [2] was 301 ± 15 µM. Further, on RNase A [3], the “α-helix content of RNase A upon binding” value came to 24.7%.

Regarding `O=C(O)CN(CCO)C(=O)Cn1ccc(=O)[nH]c1=O` [U-ol-acid (8)], the melting point is 177 to 179 °C. In addition, the “RNase A inhibition, relative band intensities in agarose gel” value on RNase A [1] is “relatively more potent inhibitors”. The inhibitory constant (Ki) on RNase A [2] turned out to be 454 ± 9 µM.

In general, melting point refers to the temperature, or range, at which the solid turns liquid. What is called Ki is the equilibrium dissociation constant of an inhibitor or competing ligand from its target.

The record behind these values is publication PMC6272279, “Carboxylated Acyclonucleosides: Synthesis and RNase A Inhibition” (Molecules, 2015).
